5 molecules from US20030187007A1, “Inhibitors of protein kinase for the treatment of disease” (priority 2001, published 2003) can be followed below.

Common to all, as to assay type: biochemical
One assay addresses CDK5 complexed with p25 (Homo sapiens, UniProt Q00535). Briefly: Cyclin dependent kinase activity assay, phosphorylation of synthetic peptide PKTPKKAKKLRRR
The following applies: CDK5 complexed with p25, 0.1 mM ATP; read-out: CDK 5 Activity*. In short, it runs like this: (§1)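 Radiometric filter-binding assay: 0.1 mM ATP plus ³³P-γ-ATP, 0.1 mM peptide, 1 mM DTT, 10 mM MgCl2 in 100 mM HEPES pH 7.4, with enzyme complex at 0.3–0.4 U/mL. Incubated 2 h at 30 °C; peptide captured on P81 phosphocellulose, washed with 0.5% phosphoric acid and counted by scintillation.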

Assay [1] deals with CDK2 complexed with cyclin A (Homo sapiens, UniProt P24941). The description is as above. The following applies: 0.1 mM ATP, read-out: CDK 2 Activity*. In short, it runs like this: as §1
A further assay has as its target KDR (Homo sapiens, UniProt P35968). The assay can be described thus: Enzyme assay for  (KDR), IC50 determination. The following applies: 50 nM KDR, 500 μM ATP. The method, then:
Enzyme assays for IC50 determinations were performed in 96-well titer plates, in a total reaction volume of 50 μL. Each reaction contained 1.5 μL of appropriate dilutions of inhibitor, 50 mM Hepes, pH 7.4, 1 mM DTT, 10 mM magnesium chloride, 2 mM phospho-poly(E4Y) (Sigma Chemical Company), 500 μM unlabeled ATP, 0.0025 μM [^33P]ATP (Amersham Pharmacia Biotech), and 50 nM KDR. All components except KDR were added to the wells, and the reaction was started by the addition of the enzyme. The reactions were mixed and incubated at room temperature for 1 hr, after which the reactions were quenched by the addition of 50 μL of 8% phosphoric acid. At this point, 90 μL aliquots of the samples were applied to positively charged DEAE 96-well filter plates (Millipore Corporation MADENOB10). The plates were incubated for 30 min at room temperature. The samples were aspirated and the wells were washed 3 times with 200 μL of 0.5% phosphoric acid. To each well, 50 μL of scintillation cocktail was added and counted for 60 sec in a TopCount microplate scintillation counter (Packard Instrument Company). The concentration of a compound that inhibited the activity of KDR by 50% (IC50) was determined based its inhibition curve.

CDK5 complexed with p25, sequence (Q00535 whole entry): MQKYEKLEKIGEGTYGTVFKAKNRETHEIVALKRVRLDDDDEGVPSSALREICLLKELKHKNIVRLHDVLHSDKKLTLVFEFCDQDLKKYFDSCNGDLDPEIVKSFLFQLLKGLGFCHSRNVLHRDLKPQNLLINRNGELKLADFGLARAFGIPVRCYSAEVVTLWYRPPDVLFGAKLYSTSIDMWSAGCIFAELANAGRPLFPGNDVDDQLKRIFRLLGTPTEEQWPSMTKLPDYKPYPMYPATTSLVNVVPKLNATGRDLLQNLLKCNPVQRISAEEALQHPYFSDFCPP
CDK5 complexed with p25, sequence (Q15078 99-307 partner limits assumed): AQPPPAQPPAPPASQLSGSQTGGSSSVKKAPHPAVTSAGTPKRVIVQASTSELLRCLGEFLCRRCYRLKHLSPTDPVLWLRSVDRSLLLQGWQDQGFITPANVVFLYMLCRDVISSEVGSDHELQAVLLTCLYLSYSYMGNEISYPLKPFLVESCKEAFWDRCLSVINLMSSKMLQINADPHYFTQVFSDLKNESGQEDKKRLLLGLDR
KDR, sequence (P35968 20-1356): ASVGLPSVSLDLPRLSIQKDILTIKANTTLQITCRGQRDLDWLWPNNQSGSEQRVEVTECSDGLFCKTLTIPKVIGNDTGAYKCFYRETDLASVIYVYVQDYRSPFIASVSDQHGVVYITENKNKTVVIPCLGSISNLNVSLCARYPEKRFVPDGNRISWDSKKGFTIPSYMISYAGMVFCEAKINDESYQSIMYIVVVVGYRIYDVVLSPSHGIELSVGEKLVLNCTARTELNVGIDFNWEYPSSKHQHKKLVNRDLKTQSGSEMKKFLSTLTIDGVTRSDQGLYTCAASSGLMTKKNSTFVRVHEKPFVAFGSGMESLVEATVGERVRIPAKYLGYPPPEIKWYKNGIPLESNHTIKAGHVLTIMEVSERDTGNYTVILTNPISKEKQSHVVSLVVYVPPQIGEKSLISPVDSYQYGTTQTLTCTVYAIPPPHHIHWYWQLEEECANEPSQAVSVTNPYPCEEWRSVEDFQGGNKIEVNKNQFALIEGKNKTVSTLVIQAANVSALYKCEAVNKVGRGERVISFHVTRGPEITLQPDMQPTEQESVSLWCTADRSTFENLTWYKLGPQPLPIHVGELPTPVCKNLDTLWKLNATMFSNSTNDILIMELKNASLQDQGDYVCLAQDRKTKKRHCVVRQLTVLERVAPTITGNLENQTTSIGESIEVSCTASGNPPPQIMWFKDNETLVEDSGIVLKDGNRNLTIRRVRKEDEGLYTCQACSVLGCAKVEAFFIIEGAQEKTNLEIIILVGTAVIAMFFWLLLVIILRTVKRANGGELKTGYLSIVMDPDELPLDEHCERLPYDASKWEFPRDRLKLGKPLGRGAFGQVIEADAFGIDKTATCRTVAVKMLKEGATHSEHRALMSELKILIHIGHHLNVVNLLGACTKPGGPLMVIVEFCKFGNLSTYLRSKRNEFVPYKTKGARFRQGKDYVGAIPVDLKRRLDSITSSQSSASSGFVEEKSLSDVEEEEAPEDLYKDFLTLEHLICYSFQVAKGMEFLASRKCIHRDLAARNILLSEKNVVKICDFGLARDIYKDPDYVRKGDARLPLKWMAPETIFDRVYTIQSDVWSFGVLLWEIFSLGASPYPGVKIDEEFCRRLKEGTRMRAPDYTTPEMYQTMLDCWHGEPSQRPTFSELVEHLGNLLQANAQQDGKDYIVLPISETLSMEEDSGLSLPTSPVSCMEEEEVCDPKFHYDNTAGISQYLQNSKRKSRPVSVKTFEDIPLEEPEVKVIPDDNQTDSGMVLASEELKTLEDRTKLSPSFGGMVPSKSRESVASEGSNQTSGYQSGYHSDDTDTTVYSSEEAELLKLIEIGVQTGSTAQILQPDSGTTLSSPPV

As for `Nc1nc(N[C@H](CO)Cc2ccccc2)cc(-c2cc(-c3ccc(O)cc3)ccc2O)n1` [Example 87, 3-[2-Amino-6-(1S-benzyl-2-hydroxy-ethylamino)-pyrimidin-4-yl]-biphenyl-4,4′-diol], the IC50 at CDK5 complexed with p25 was under 0.5 µM; in assay [1] it was under 0.5 µM; against KDR, 1 to 20 µM.

For `Nc1nc(-c2cccc([N+](=O)[O-])c2)cc(-c2cc(-c3ccc(O)cc3)ccc2O)n1` [Example 88, 3-[2-Amino-6-(3-nitro-phenyl)-pyrimidin-4-yl]-biphenyl-4,4′-diol], the IC50 is under 0.5 µM on CDK5 complexed with p25, under 0.5 µM in assay [1] and 1 to 20 µM on KDR.

Turning to `Nc1nc(-c2ccc([N+](=O)[O-])cc2)cc(-c2cc(-c3ccc(O)cc3)ccc2O)n1` [Example 89, 3-[2-Amino-6-(4-nitro-phenyl)-pyrimidin-4-yl]-biphenyl-4,4′-diol], the IC50 was under 0.5 µM at CDK5 complexed with p25, under 0.5 µM in assay [1] and 1 to 20 µM against KDR.

In the case of `Nc1ccc(-c2cc(-c3cc(-c4ccc(O)cc4)ccc3O)nc(N)n2)cc1` [Example 90, 3-[2-Amino-6-(4-amino-phenyl)-pyrimidin-4-yl]-biphenyl-4,4′-diol], the IC50 on CDK5 complexed with p25 is under 0.5 µM; in assay [1] it was under 0.5 µM; against KDR it was under 1 µM.

As to `Nc1cccc(-c2cc(-c3cc(-c4ccc(O)cc4)ccc3O)nc(N)n2)c1` [Example 91, 3-[2-Amino-6-(3-amino-phenyl)-pyrimidin-4-yl]-biphenyl-4,4′-diol], the values for the IC50 (at CDK5 complexed with p25; in assay [1]; against KDR) were under 0.5 µM, under 0.5 µM and under 1 µM, respectively.
